Values of other authors, collected in patent US20080311191A1, “Multi-Layer Tablets and Bioadhesive Dosage Forms” (priority 2004, published 2008).
Read-outs that look alike come from different tables or passages of the source.

Assays:
[1] = not given; remark: listed apart in the source

Row | Compound | water solubility | GI permeability [1] | water solubility [1] | solubility in water at pH<3.5 ([1]; pH<3.5)
1 | Nc1nc2c(ncn2COCCO)c(=O)[nH]1 [Acyclovir, acyclovir] | moderate | – | – | –
2 | CCC(C)n1ncn(-c2ccc(N3CCN(c4ccc(OCC5COC(Cn6cncn6)(c6ccc(Cl)cc6Cl)O5)cc4)CC3)cc2)c1=O (stereo not shown) [Itraconazole, itraconazole] | – | good | negligible | slightly soluble
